Source: patent US10265329B2, “Altering steroid metabolism for treatment of steroid-dependent disease” (THE CLEVELAND CLINIC FOUNDATION, priority 2015, dated 2019)

Tests used:
VCaP xenografts = assay: VCaP xenograft progression in orchiectomized mice with DHEA pellet; format: in vivo; conditions: 0.5 mmol/kg/d i.p.; compared to the Abi acetate group, P=0.011
Method: Male NSG mice, 6 to 8 weeks of age were obtained from the Cleveland Clinic Biological Resources Unit facility. All mouse studies were conducted under a protocol approved by the Cleveland Clinic Institutional Animal Care and Use Committee. Sample size was determined based on our prior studies of steroidogenesis inhibition in xenograft models of CRPC. Chang et al., Proc Natl Acad Sci USA., 108:13728-13733 (2011). Criteria for progression were determined based on similar criteria that are utilized for clinical progression. Mice were surgically orchiectomized and implanted with a 5 mg 90-day sustained-release DHEA pellet (Innovative Research of America) to mimic CRPC in the context of human adrenal physiology. Two days later, 10^7 VCaP or C4-2 cells were injected subcutaneously with matrigel. Once tumors reached 300 mm^3 (length×width×height×0.52), mice were arbitrarily (but not strictly randomized) assigned to vehicle (n=9 or 10 mice for VCaP and C4-2 respectively), Abi acetate (n=10 mice for both cell lines), D4A (n=10 mice for both cell lines) or enzalutamide (n=11 for C4-2) treatment groups. […] Tumor volume was measured daily, and time to increase in tumor volume by 20% was determined. […] The significance of the difference between treatment groups was assessed by Kaplan-Meier survival analysis using a log-rank test in SigmaStat 3.5.

[1] = Abi conversion to D4A in mouse serum after Abi acetate; format: in vivo; conditions: mice administered Abi acetate i.p.
Method: FIG. 1A-FIG. 1E provides chemical structures and graphs showing the structural consequences of the conversion from Abi to D4A that occurs in both mice, and patients, and requires 3βHSD. A, Schematic of Abi conversion to D4A. * double bond and C3-position for substrates and products of 3βHSD. B, Abi is converted to D4A in vivo. Abi acetate was injected i.p. in 5 mice. Blood was collected 2 h and 4 h after injection. Serum concentrations of Abi and D4A were quantified by mass spectrometry and are represented as the percentage of the sum total of Abi+D4A. C, D4A is detectable in all patients (n=12) with CRPC treated with Abi acetate. D, Representative mass spectrometry tracing of D4A and Abi from the serum of a patient treated with Abi acetate. E, 3βHSD1 is capable of converting Abi to D4A. LAPC4 cells overexpressing 3βHSD1 were treated with 10 μM Abi (or [^3H]-DHEA) for 24 h. Abi, D4A (as a percentage of Abi+D4A), [^3H]-DHEA and [^3H]-DHEA metabolites (labeled metabolites), were separated by HPLC. Results are shown as mean (n=3)±s.d. with biological replicates. The experiment was repeated independently at least 3 times.

VCaP CRPC xenografts = assay: VCaP CRPC xenograft growth under 5α-reduced Abi metabolites; format: in vivo; conditions: orchiectomized mice; i.p. daily up to 20 days; >30% growth
Method: Male NSG mice, 6 to 8 weeks of age were obtained from the Cleveland Clinic Biological Resources Unit facility. All mouse studies were conducted under a protocol approved by the Cleveland Clinic Institutional Animal Care and Use Committee. 10^7 VCaP cells were injected subcutaneously with matrigel. […] Control groups were administered 0.15 mL 5% benzyl alcohol and 95% safflower oil solution via intraperitoneal injection every day. Tumor volume was measured every other day, and time to increase in tumor volume by 30% was determined (2 sequential increases). Mice were sacrificed at treatment day 20. The significance of the difference between treatment groups was assessed by Kaplan-Meier survival analysis using a log-rank test in SigmaStat 3.5.

[2] = tested on: androgen-responsive gene expression (PSA); assay: Stimulation of androgen-responsive gene expression by Abi metabolites (qPCR); format: cell-based, human; conditions: LAPC4 and LNCaP
Method: Cells were starved with phenol red-free and serum free-medium for at least 48 h before treatment with the indicated drugs and/or androgens. RNA extraction and cDNA synthesis were performed with the GenElute Mammalian Total RNA miniprep kit (Sigma-Aldrich) and iScript cDNA Synthesis Kit (Bio-Rad, Hercules, Calif.) respectively. Quantitative PCR (qPCR) analysis was conducted in triplicate in an ABI 7500 Real-Time PCR machine (Applied Biosystems) using iTaq Fast SYBR Green Supermix with ROX (Bio-Rad) and primers for TMPRSS2, PSA and RPLPO, as described. Chang et al., Cell 154, 1074-1084 (2013). Accurate quantitation of each mRNA was achieved by normalizing the sample values to RPLPO and to vehicle-treated cells. 50 μg cell lysate was used for immunoblot with rabbit anti-SRD5A1 (Abnova) and mouse anti-β-actin (Sigma-Aldrich) antibodies.

Row | SMILES | time to tumor progression (>20% increase in tumor volume) (VCaP xenografts) | detection in sera of mice [1] | progression-free survival compared to control xenografts (VCaP CRPC xenografts) | induction of androgen-responsive gene expression [2]
1 | C[C@]12CCC(=O)C=C1CC[C@@H]1[C@@H]2CC[C@]2(C)C(c3cccnc3)=CC[C@@H]12 [Compound D4A, 17-(3-Pyridyl)androsta-4,16-dien-3-one] | significantly delayed | detectable |  | 
2 | C[C@]12CCC(=O)C[C@@H]1CC[C@@H]1[C@@H]2CC[C@]2(C)C(c3cccnc3)=CC[C@@H]12 [Compound 5α-Abi, 17-(3-pyridyl)-5α-androsta-16-ene-3-one] |  |  | significantly shortened progression-free survival | results in expression of androgen-responsive genes
3 | C[C@]12CC[C@@H](O)C[C@@H]1CC[C@@H]1[C@@H]2CC[C@]2(C)C(c3cccnc3)=CC[C@@H]12 [Compound 3α-OH-5α-Abi, 17-(3-pyridyl)-5α-androsta-16-ene-3α-ol] |  |  | no detectable effect | A lower level of induction
